Experiments:
[1] = tested on: HSV-1; assay: HSV-1 lytic viral yields from HFF cells; type: cell-based; details: HFF pretreated 5 hrs, HSV-1 0.1 pfu/cell 24 hrs; FIG. 10
Procedure: FIG. 14 is a bar graph showing viral yields from HFF cells treated with DMSO or ML324 for 3 hours and infected with HSV-1 (0.1 PFUper cell) for 24 hours in the presence of the drugs. *P<0.004, one-way ANOVA with Dunnett's post hoc test. Data are means±SEM.
HSV-1 lytic viral yields decrease in the presence of DMOG (FIG. 10). HFF cells were pretreated with DMSO control or JMJD2 inhibitor DMOG for 5 hrs and infected with 0.1 pfu/cell of HSV-1 for 24 hrs in the presence of DMSO or DMOG. The yield of infectious virus derived from each treatment were determined by tittering on Vero cells according to standard procedures.

[2] = tested on: CMV; assay: CMV IE gene expression in HFF cells; type: cell-based; details: increasing concentration of DMOG, FIG. 9
Text: CMV IE gene expression (IE1 and UL37) and control TBP (Tata binding Protein) in the presence of increasing concentrations of DMOG were also studied (FIG. 9). HFF were pretreated with the indicated concentration of DMOG for 3.5 hrs and infected with CMV for 4 hrs. Total RNA was extracted, reverse-transcribed, and cDNAs were quantitated by qPCR using primers to viral IE genes or control genes.

[3] = tested on: HSV-1; assay: HSV-1 IE mRNA levels in infected HFF cells; type: cell-based; details: increasing concentration of DMOG, HFF, FIG. 7
Procedure: FIG. 13 is a line graph showing viral IE (ICP4, ICP27, and ICP22) and control (S15, Sp1, and TBP) mRNA levels in HFF cells treated with DMSO or the indicated concentrations of ML324 for 3 hours and infected with HSV-1 (0.1 PFU per cell) for 3 hours. *P<0.0001, two-way ANOVA with Tukey's post hoc test. Data are means±SEM.
HSV-1 IE mRNA levels of ICP4 and ICP27 decrease in cells infected in the presence of DMOG. Human foreskin fibroblast (HFF) cells were infected with HSV-1 at 0.1 PFU/cell for 3 hrs in the presence of increasing concentrations of DMOG. Cells were harvested and the levels of viral IE (ICP4, ICP27) and cell control (s15) mRNAs were assessed by qRT-PCR.
All experiments were performed as described in Liang et al., Sci. Transl. Med. 5, 167ra5 (2013). N-(3-(dimethylamino)propyl)-4-(8-hydroxyquinolin-6-yl)benzamide (designated ML324) has the following characteristics: N-(3-(dimethylamino)propyl)-4-(8-hydroxyquinolin-6-yl)benzamide (1). LC-MS: rt (min)=3.033; ^1H NMR (400 MHz, DMSO-d6) δ 1.84-1.98 (m, 2H), 2.79 (s, 3H), 2.80 (s, 3H), 3.12 (ddd, J=10.2 Hz, 5.4 Hz and 5.2 Hz, 2H), 3.37 (q, 2H), 7.50 (s, 1H), 7.66 (dd, J=8.2 Hz and 4.3 Hz, 1H), 7.84 (s, 1H), 7.88-7.94 (m, 2H), 7.96-8.02 (m, 2H), 8.50 (d, J=8.2 Hz, 1H), 8.71 (t, J=5.6 Hz, 1H), 8.90 (d, J=4.1 Hz, 1H), 9.34 (brs, 1H); HRMS (ESI) m/z (M+H)^+ C21H24N3O2, 350.1867. found 350.1863.

[4] = tested on: HSV-1 IE promoters; assay: ChIP of H3K9me3 / histone H3 on HSV-1 IE promoters in HeLa cells; type: cell-based; details: 2 mM DMOG 4 hours before infection; FIG. 8
Procedure: Hela cells were pretreated with 2 mM DMOG for 4 hours prior to infection. Cells were infected with 0.1 pfu/cell of HSV-1 for 3 hrs. Standard Chromatin-Immunoprecipitation procedures were preformed (Liang, Vogel, Narayanan, Peng & Kristie, 2009, Nature Med 15:1312-17) to determine the levels of total histone H3 or tri-methylated histone H3 associated with the indicated viral IE promoters.

[5] = tested on: HSV-1; assay: HSV-1 ICP4 protein levels in infected HeLa cells (quantitative western blot); type: cell-based; details: increasing concentrations of DMOG, HSV-1 0.1 PFU/cell 3 hrs, FIG. 6
Procedure: HSV-1 IE protein levels of ICP4 decrease in cells infected in the presence of DMOG. HeLa cells were infected with HSV-1 at 0.1 PFU/cell for 3 hrs in the presence of increasing concentrations of DMOG. Cells were harvested and the levels of viral IE proteins (ICP4 shown) were determined by quantitative western blot analyses. As the concentration of DMOG is increased, the levels of ICP4 decrease (FIG. 6).

[6] = tested on: HSV-1; type: cell-based, Balb/c mice; set-up: reduction of viral reactivation (viral yield): unit of the concentration uncertain
Procedure: FIG. 18 is a dot plot showing latently infected ganglia that were explanted in the presence of DMSO, ACV (100 mM), or ML324 (50 mM) for 48 hrs. Viral yields were determined from one half of each ganglia at 48 hrs (DMSO, ACV, ML324) and from the other half of each ganglia after drug reversal for an additional 72 hrs (ACV-R, ML324-R) [Wilcoxon matched pairs signed rank test, ACV vs ACV-R n=8, ML324 vs ML324-R n=10]. Data are means±SEM.
FIG. 19 is a dot plot showing viral yields from HSV-1 latently infected trigeminal ganglia that were explanted in the presence of DMSO, or 2 mM DMOG or 50 mM ML324 for 48 hours (DMSO versus DMOG: P=0.0015, Wilcoxon matched-pairs signed rank test; n=12; DMSO versus ML324: P<0.0001; n=20). Data are means±SEM.
Viral yields decrease from HSV-1 latently infected ganglia explanted in the presence of LSD1 or JMJD2 inhibitors (FIG. 11). Balb/c mice were infected with 5×10^6 PFU HSV-1 (strain F) per eye after corneal scarification. Latently infected mice were sacrificed 45 days post clearance of the primary infection and trigeminal ganglia were rapidly explanted into culture in the presence of 2 mM DMOG, 2 mM TCP, or control (DMSO or ACV, acyclovir) for 48 hours. Post explant incubation, the ganglia were homogenized and briefly sonicated. The reactivated viral yield of each ganglia was determined by titering the clarified supernatant on Vero cells. Statistical comparisons were made using Wilcoxon signed rank test (paired ganglia) with a statistical significance of <0.05. Each data point was the result of a single ganglia divided and treated in the presence and absence of DMSO and DMOG or DMSO and TCP. Therefore, a Wilcoxon signed rank test was used to assess differences between each treated and untreated sample. The significant difference between DMSO control and DMOG was p=0.0018. This test used an exact p-value for small sample sizes with an a level of 0.05. n=20. Analyses were made using Prism (V5.0a) and are expressed as the mean+/−s.e.m.

[7] = tested on: HSV-1; assay: IE mRNA levels in explanted latently infected ganglia; type: cell-based, mice; details: 7 hours post explant; ICP4 and ICP27 mRNA; FIG. 12
Procedure: Total RNA was isolated and subjected to reverse transcription. The resulting cDNAs were analyzed for viral Immediate Early ICP4 and ICP27 mRNAs relative to an infected cell standard by nested or qPCR. In accordance with an embodiment of the invention, DMOG reduces the levels of viral mRNAs in explanted/reactivated ganglia.
IE gene transcription is repressed in explanted latently infected sensory ganglia in the presence of DMOG (FIG. 12). Total RNA was extracted from ganglia of latently infected mice explanted in the presence of control ACV or DMOG for 7 hours. Random primed cDNA was produced from total RNA using RNAqueous-4PCR and RETROscript (Ambion, Austin, Tex., USA) according to the manufacturer's recommendations. cDNAs were quantitated by nested PCR or qPCR using primers specific for the HSV-1 ICP4 and ICP27 IE mRNAs.

## COC(=O)CNC(=O)C(=O)OC [DMOG, N-methoxyoxoacetyl-glycine methyl ester]
[1]
  HSV-1 lytic viral yields: decrease
[2]
  control mRNA (TBP) level decrease: does not
[2]; HFF pretreated 3.5 hrs, CMV 4 hrs
  CMV IE mRNA levels (IE1/IE7 and UL37): decrease
[3]; HSV-1 0.1 PFU/cell 3 hrs
  mRNA levels of ICP4 and ICP27: decrease
[3]
  control mRNA (s15) level decrease: does not
[4]
  repressive chromatin (H3K9me3, H3) on HSV-1 IE promoters: accumulation of repressive chromatin
[5]
  levels of ICP4 protein: decrease
[6]; 2 mM DMOG, 2 mM TCP or ACV, 48 hours, FIG. 11
  viral yield from explanted latently infected ganglia: decreases
[6]; 2 (unit uncertain), 48 hours explant, FIG. 19
  reduction of viral reactivation (viral yield): ~1.5 log
[7]
  IE gene transcription in explanted latently infected sensory ganglia: repressed

Source: patent US8871789B2, “Method of preventing or treating viral infection” (The United States of America, as represented by the …, priority 2010, dated 2014)
